Results published in ChEMBL document CHEMBL1158916, “2-O-alpha-D-galactopyranosyl glycerol hexaacetate from Ruellia brittoniana” (J Nat Prod, 1990).

System: Rattus norvegicus
Experiment: Toxicity in anesthetized rat assessed as increase in mean arterial pressure at 100 ug/kg
Type: organism-based, Artery
Conditions: in vivo, 0.1 mg/kg

## CC(=O)OCC(COC(C)=O)O[C@H]1O[C@H](COC(C)=O)[C@H](OC(C)=O)[C@H](OC(C)=O)[C@H]1OC(C)=O
  Activity: Toxic
